Reference: PubChem BioAssay AID1963826 (Molecular Pharmacology Branch, DTP, NCI, 2024)

Tested on: 926638-142-R-J1-PDC complex spheroid viability
Assay: Anticancer human tumor 926638-142-R-J1-PDC patient-derived endometrial carcinoma cell line growth inhibition [POLQ]
Conditions: for IC50: curve of first compound; for viability, T/C: stronger effect = lower value
Procedure, shortened: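 Growth inhibition in 3D: complex spheroids (tumor PDC, HUVEC, MSC) treated with POLQ inhibitor combinations; where Cmax unknown, highest tested concentration 10 microM, except SN-38 at 1 microM.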

[1] = second compound 0.0316 µM, first compound 0.0316 µM
[2] = second compound 0.0316 µM, first compound 0.1 µM
[3] = second compound 0.0316 µM, first compound 0.316 µM
[4] = second compound 0.0316 µM, first compound 1 µM
[5] = second compound 0.0316 µM, first compound 3.16 µM
[6] = second compound 0.0316 µM, first compound 10 µM
[7] = second compound 0.1 µM, first compound 0.0316 µM
[8] = second compound 0.1 µM, first compound 0.1 µM
[9] = second compound 0.1 µM, first compound 0.316 µM
[10] = second compound 0.1 µM, first compound 1 µM
[11] = second compound 0.1 µM, first compound 3.16 µM
[12] = second compound 0.1 µM, first compound 10 µM
[13] = second compound 0.316 µM, first compound 0.0316 µM
[14] = second compound 0.316 µM, first compound 0.1 µM
[15] = second compound 0.316 µM, first compound 0.316 µM
[16] = second compound 0.316 µM, first compound 1 µM
[17] = second compound 0.316 µM, first compound 3.16 µM
[18] = second compound 0.316 µM, first compound 10 µM
[19] = second compound 1 µM, first compound 0.0316 µM
[20] = second compound 1 µM, first compound 0.1 µM
[21] = second compound 1 µM, first compound 0.316 µM
[22] = second compound 1 µM, first compound 1 µM
[23] = second compound 1 µM, first compound 3.16 µM
[24] = second compound 1 µM, first compound 10 µM
[25] = second compound 3.16 µM, first compound 0.0316 µM
[26] = second compound 3.16 µM, first compound 0.1 µM
[27] = second compound 3.16 µM, first compound 0.316 µM
[28] = second compound 3.16 µM, first compound 1 µM
[29] = second compound 3.16 µM, first compound 3.16 µM
[30] = second compound 3.16 µM, first compound 10 µM
[31] = second compound 10 µM, first compound 0.0316 µM
[32] = second compound 10 µM, first compound 0.1 µM
[33] = second compound 10 µM, first compound 0.316 µM
[34] = second compound 10 µM, first compound 1 µM
[35] = second compound 10 µM, first compound 3.16 µM
[36] = second compound 10 µM, first compound 10 µM
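Further: spheroids exposed to drugs for one week before readout.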
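Wherever viability, T/C is given: percent viability relative to DMSO vehicle control wells set as 100%.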

In the case of `C#Cc1c(F)ccc2cc(O)cc(-c3ncc4c(N5CC6CCC(C5)N6)nc(OCC56CCCN5CC(F)C6)nc4c3F)c12` (stereo unspecified) + COC1C(OC(N)=O)C(O)C(Oc2ccc3c(O)c(NC(=O)c4ccc(O)c(CC=C(C)C)c4)c(=O)oc3c2C)OC1(C)C, the IC50 (second compound 0.0316 µM) is reported as greater than 10000 nM, the IC50 (second compound 0.1 µM) is reported as greater than 10000 nM and the IC50 (second compound 0.316 µM) is reported as greater than 10000 nM. For the same compound, the IC50 (second compound 1 µM) was greater than 10000 nM, the IC50 (second compound 3.16 µM) was greater than 10000 nM and the IC50 (second compound 10 µM) was greater than 10000 nM. The viability, T/C [1] was 99.4%, the viability, T/C [2] was 84.1% and the viability, T/C [3] was 89%. It also gave a viability, T/C [4] of 84.2%, a viability, T/C [5] of 60.1% and a viability, T/C [6] of 54.6%. It also gave a viability, T/C [7] of 90.2%, a viability, T/C [8] of 86.6% and a viability, T/C [9] of 81.3%. The viability, T/C [10] was 72.9%, the viability, T/C [11] was 66.4% and the viability, T/C [12] was 51.9%. The viability, T/C [13] was 97.1%, the viability, T/C [14] was 73.7% and the viability, T/C [15] was 89.4%. For the same compound, the viability, T/C [16] was 64.9%, the viability, T/C [17] was 59.4% and the viability, T/C [18] was 65.9%. The viability, T/C [19] was 84.8%, the viability, T/C [20] was 81.7% and the viability, T/C [21] was 80.9%. The viability, T/C [22] was 71.9%, the viability, T/C [23] was 72.2% and the viability, T/C [24] was 61.9%. The viability, T/C [25] was 78.9%, the viability, T/C [26] was 84.2% and the viability, T/C [27] was 77.9%. The viability, T/C [28] was 72.2%, the viability, T/C [29] was 64.4% and the viability, T/C [30] was 52.5%. For the same compound, the viability, T/C [31] was 85.2%, the viability, T/C [32] was 73.5% and the viability, T/C [33] was 91.3%. It also gave a viability, T/C [34] of 67.4%, a viability, T/C [35] of 68.4% and a viability, T/C [36] of 62.9%.
`CC1COCCN1c1cc(C2(O)CC3CCC(C2)O3)c2cnn(-c3ccn[nH]3)c2n1` (stereo unspecified) + COC1C(OC(N)=O)C(O)C(Oc2ccc3c(O)c(NC(=O)c4ccc(O)c(CC=C(C)C)c4)c(=O)oc3c2C)OC1(C)C was tested, and the IC50 (second compound 0.0316 µM) was 212 nM, the IC50 (second compound 0.1 µM) was 204 nM and the IC50 (second compound 0.316 µM) was 200 nM. It also gave an IC50 (second compound 1 µM) of 217 nM, an IC50 (second compound 3.16 µM) of 222 nM and an IC50 (second compound 10 µM) of 181 nM. The viability, T/C [1] was 106%, the viability, T/C [2] was 74.5% and the viability, T/C [3] was 35.6%. For the same compound, the viability, T/C [4] was 17.5%, the viability, T/C [5] was 7.23% and the viability, T/C [6] was 1.82%. For the same compound, the viability, T/C [7] was 108%, the viability, T/C [8] was 64.9% and the viability, T/C [9] was 46%. For the same compound, the viability, T/C [10] was 12.8%, the viability, T/C [11] was 6.56% and the viability, T/C [12] was 1.94%. The viability, T/C [13] was 102%, the viability, T/C [14] was 69.1% and the viability, T/C [15] was 37.4%. The viability, T/C [16] was 16.5%, the viability, T/C [17] was 7.59% and the viability, T/C [18] was 1.6%. It also gave a viability, T/C [19] of 86.9%, a viability, T/C [20] of 75.8% and a viability, T/C [21] of 36.8%. The viability, T/C [22] was 12.9%, the viability, T/C [23] was 7.07% and the viability, T/C [24] was 1.87%. It also gave a viability, T/C [25] of 90.5%, a viability, T/C [26] of 77.7% and a viability, T/C [27] of 36.5%. It also gave a viability, T/C [28] of 15%, a viability, T/C [29] of 6.73% and a viability, T/C [30] of 2%. For the same compound, the viability, T/C [31] was 91.4%, the viability, T/C [32] was 69.4% and the viability, T/C [33] was 31.1%. It also gave a viability, T/C [34] of 13%, a viability, T/C [35] of 7.88% and a viability, T/C [36] of 1.74%.
Compound `CCc1cc2c(N3CCc4c(cc(Cn5ccnc5)cc4-c4cn(C)nc4C(F)(F)F)C3=O)cc(C)nc2c(OC)n1` + COC1C(OC(N)=O)C(O)C(Oc2ccc3c(O)c(NC(=O)c4ccc(O)c(CC=C(C)C)c4)c(=O)oc3c2C)OC1(C)C has an IC50 (second compound 0.0316 µM) of 400 nM, an IC50 (second compound 0.1 µM) of 277 nM and an IC50 (second compound 0.316 µM) of 313 nM. It also gave an IC50 (second compound 1 µM) of 214 nM, an IC50 (second compound 3.16 µM) of 244 nM and an IC50 (second compound 10 µM) of 667 nM. For the same compound, the viability, T/C [1] was 79.3%, the viability, T/C [2] was 65.2% and the viability, T/C [3] was 49.6%. For the same compound, the viability, T/C [4] was 42.6%, the viability, T/C [5] was 33.4% and the viability, T/C [6] was 23.4%. The viability, T/C [7] was 72.5%, the viability, T/C [8] was 73% and the viability, T/C [9] was 46.9%. For the same compound, the viability, T/C [10] was 27.6%, the viability, T/C [11] was 26% and the viability, T/C [12] was 23.8%. The viability, T/C [13] was 68%, the viability, T/C [14] was 52% and the viability, T/C [15] was 52.7%. It also gave a viability, T/C [16] of 43.6%, a viability, T/C [17] of 31.1% and a viability, T/C [18] of 23.5%. The viability, T/C [19] was 88.8%, the viability, T/C [20] was 60.7% and the viability, T/C [21] was 46.9%. The viability, T/C [22] was 31.2%, the viability, T/C [23] was 28.8% and the viability, T/C [24] was 28.9%. For the same compound, the viability, T/C [25] was 60.1%, the viability, T/C [26] was 58.4% and the viability, T/C [27] was 47.1%. The viability, T/C [28] was 35.8%, the viability, T/C [29] was 27.6% and the viability, T/C [30] was 21.6%. For the same compound, the viability, T/C [31] was 66.9%, the viability, T/C [32] was 65.8% and the viability, T/C [33] was 62.3%. For the same compound, the viability, T/C [34] was 43.1%, the viability, T/C [35] was 29.7% and the viability, T/C [36] was 25%.
